Legend:
[1] = tested on: HT29; experiment: NCI60 five-dose screen; format: cell-based; conditions: Homo sapiens, HT-29, HT29, colon cancer; for CC50: read-out: LC50 (the source's name)
[2] = tested on: OVCAR-8; experiment: NCI60 five-dose screen; format: cell-based; conditions: Homo sapiens, OVCAR-8, ovarian cancer; for CC50: read-out: LC50 (the source's name)
[3] = tested on: NCI-H522; experiment: NCI60 five-dose screen; format: cell-based; conditions: Homo sapiens, NCI-H522, NSC lung cancer; for CC50: read-out: LC50 (the source's name)
[4] = tested on: BT-549; experiment: NCI60 five-dose screen; format: cell-based; conditions: Homo sapiens, BT-549, breast cancer; for CC50: read-out: LC50 (the source's name)
[5] = tested on: CAKI-1; experiment: NCI60 five-dose screen; format: cell-based; conditions: Homo sapiens, CAKI-1, renal cancer; for CC50: read-out: LC50 (the source's name)
[6] = tested on: UACC-257; experiment: NCI60 five-dose screen; format: cell-based; conditions: Homo sapiens, UACC-257, melanoma; for CC50: read-out: LC50 (the source's name)
[7] = tested on: HOP-92; experiment: NCI60 five-dose screen; format: cell-based; conditions: Homo sapiens, HOP-92, NSC lung cancer; for CC50: read-out: LC50 (the source's name)
[8] = tested on: NCI/ADR-RES; experiment: NCI60 five-dose screen; format: cell-based, human; conditions: Homo sapiens, ovarian cancer; for CC50: read-out: LC50 (the source's name)
[9] = molecular target: T1, Human CYP19 (aromatase) (Homo sapiens, UniProt P11511); experiment: Aromatase inhibition assay (DBF fluorometric substrate); format: biochemical; conditions: active defined as IC50 < 12.5 µM
T1 construct: purchased GENTEST, Woburn, MA 456260; host or cells: baculovirus/insect cells
T1 sequence (P11511 1-503): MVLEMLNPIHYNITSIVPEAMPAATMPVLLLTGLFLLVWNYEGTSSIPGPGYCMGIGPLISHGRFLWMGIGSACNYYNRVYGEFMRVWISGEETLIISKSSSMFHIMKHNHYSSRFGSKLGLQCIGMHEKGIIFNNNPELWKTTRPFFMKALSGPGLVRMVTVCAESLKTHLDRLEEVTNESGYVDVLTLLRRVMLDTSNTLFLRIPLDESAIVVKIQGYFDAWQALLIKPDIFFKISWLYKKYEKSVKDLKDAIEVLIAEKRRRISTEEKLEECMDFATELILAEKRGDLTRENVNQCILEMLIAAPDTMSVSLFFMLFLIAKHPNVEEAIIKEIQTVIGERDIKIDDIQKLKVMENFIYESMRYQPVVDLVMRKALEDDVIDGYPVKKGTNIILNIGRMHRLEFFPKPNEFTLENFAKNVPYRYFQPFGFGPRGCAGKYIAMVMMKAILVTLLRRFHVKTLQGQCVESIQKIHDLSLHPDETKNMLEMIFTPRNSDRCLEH
Method in brief: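 Supersomes expressing human CYP19 plus oxidoreductase (baculovirus/insect cell) with fluorometric substrate DBF; cofactor mixture pre-incubated 10 min at 37 °C, reaction run 30 min at 37 °C, stopped with NaOH. Fluorescence read at ex 490/em 530 nm.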

[10] = tested on: L929 normal mouse fibroblast cell line; experiment: Cytotoxicity MTT assay, L929; format: cell-based
Protocol: (§1) T47D (ATCC HTB-133) was purchased from Biomedia (Thailand) Co., LTD. L929 (ATCC CCL-1) was received as a gift from Prof. Tanapat Palaga, Department of Microbiology, Faculty of Science, Chulalongkorn University, Bangkok, Thailand. The cells were cultured in Dulbecco's Modified Eagle's Medium (DMEM; Gibco) supplemented with 10% fetal bovine serum (FBS; HyClone), 100 U mL^−1 penicillin and 100 µg mL^−1 streptomycin (Gibco) at 37 °C with 5% CO2.
(§2) The antiproliferative activity was determined by MTT assay. Briefly, the cells were plated into a 96-well microplate at the density of 10 000 cells per well. The cells were allowed to grow overnight before treated with the solutions of compounds in culture medium at the designated concentrations for 48 hours. The medium was then replaced with MTT solution (0.5 mg mL^−1 MTT in culture medium) and incubated for 3 hours. A 100 µL of DMSO was used to dissolve the produced formazan. Absorbance at 570 nm was then measured using a microplate reader (Varioskan™ LUX multimode microplate reader, Thermo Scientific™). Percent viability was calculated relative to the vehicle control (DMSO).

[11] = Cytotoxicity MTT assay, L929; format: cell-based, mouse; conditions: mouse, L929 fibroblast cells; MTT, 48 hours
Protocol: as §1, §2

[12] = tested on: NCI-H322M; experiment: NCI60 five-dose screen; format: cell-based; conditions: Homo sapiens, NSC lung cancer; for CC50: read-out: LC50 (the source's name)
[13] = tested on: NCI-H460; experiment: NCI60 five-dose screen; format: cell-based; conditions: Homo sapiens, NCI-H460, NSC lung cancer; for CC50: read-out: LC50 (the source's name)
[14] = tested on: MOLT-4; experiment: NCI60 five-dose screen; format: cell-based; conditions: Homo sapiens, MOLT-4, leukemia; for CC50: read-out: LC50 (the source's name)
[15] = tested on: NCI-H226; experiment: NCI60 five-dose screen; format: cell-based; conditions: Homo sapiens, NCI-H226, NSC lung cancer; for CC50: read-out: LC50 (the source's name)
[16] = tested on: EKVX; experiment: NCI60 five-dose screen; format: cell-based; conditions: Homo sapiens, NSC lung cancer; for CC50: read-out: LC50 (the source's name)
[17] = tested on: M14; experiment: NCI60 five-dose screen; format: cell-based; conditions: Homo sapiens, M14, melanoma; for CC50: read-out: LC50 (the source's name)
[18] = tested on: HOP-62; experiment: NCI60 five-dose screen; format: cell-based; conditions: Homo sapiens, HOP-62, NSC lung cancer; for CC50: read-out: LC50 (the source's name)
[19] = tested on: LOX IMVI; experiment: NCI60 five-dose screen; format: cell-based; conditions: Homo sapiens, melanoma; for CC50: read-out: LC50 (the source's name)
[20] = tested on: HCT-15; experiment: NCI60 five-dose screen; format: cell-based; conditions: Homo sapiens, HCT-15, colon cancer; for CC50: read-out: LC50 (the source's name)
[21] = tested on: SNB-19; experiment: NCI60 five-dose screen; format: cell-based; conditions: Homo sapiens, SNB-19, CNS cancer; for CC50: read-out: LC50 (the source's name)
[22] = tested on: 786-0; experiment: NCI60 five-dose screen; format: cell-based; conditions: Homo sapiens, 786-0, renal cancer; for CC50: read-out: LC50 (the source's name)

Cc1cc(C)c(/C=N/NC(=O)c2[nH]c3ccc(Br)cc3c2-c2ccccc2)[nH]1 [Derivative 3c, (E)-5-Bromo-N′-((3,5-dimethyl-1H-pyrrol-2-yl)methylene)-3-phenyl-1H-2-carbohydrazide]
GI50 [1]: 3.53 µM | CC50 [1]: 46.6 µM | GI50 [2]: 3.1 µM | CC50 [2]: 45 µM | GI50 [3]: 2.61 µM | CC50 [3]: 32.7 µM | GI50 [4]: 5.04 µM | CC50 [4]: 47.9 µM | GI50 [5]: 3.17 µM | CC50 [5]: 39.1 µM | GI50 [6]: 4.35 µM | CC50 [6]: 49.2 µM | GI50 [7]: 2.61 µM | CC50 [7]: 43.5 µM | GI50 [8]: 2.11 µM | CC50 [8]: 19.3 µM | IC50 [9]: 11.1 ± 2 µM | Selectivity index (SI) ([10]; IC50 (L929)/IC50 (T47D)): 2.54 | IC50 at 48 h [11]: 29.5 ± 12.6 µM | GI50 [12]: 2.69 µM | CC50 [12]: 38.7 µM | GI50 [13]: 2.83 µM | CC50 [13]: 37.9 µM | GI50 [14]: 2.29 µM | CC50 [14]: > 100 µM | GI50 [15]: 2.58 µM | CC50 [15]: 34.4 µM | GI50 [16]: 3.24 µM | CC50 [16]: 35.4 µM | GI50 [17]: 4.45 µM | CC50 [17]: 49.9 µM | GI50 [18]: 2.97 µM | CC50 [18]: 69.3 µM | GI50 [19]: 2.43 µM | CC50 [19]: 30.2 µM | GI50 [20]: 2.91 µM | CC50 [20]: 37.2 µM | GI50 [21]: 3.86 µM | CC50 [21]: 39.4 µM | GI50 [22]: 5.19 µM | CC50 [22]: 63.9 µM

Cc1[nH]c(/C=N/NC(=O)c2[nH]c3ccc(Br)cc3c2-c2ccccc2)c(C)c1[N+](=O)[O-] [Derivative 3r, (E)-5-Bromo-N′-((3,5-dimethyl-4-nitro-1H-pyrrol-2-yl)methylene)-3-phenyl-1H-indole-2-carbohydrazide]
GI50 [1]: 1.84 µM | CC50 [1]: 6.67 µM | GI50 [2]: 3.08 µM | CC50 [2]: 36.5 µM | GI50 [3]: 2.43 µM | CC50 [3]: 29.6 µM | GI50 [4]: 2.74 µM | CC50 [4]: 30.6 µM | GI50 [5]: 2.29 µM | CC50 [5]: 33.1 µM | GI50 [6]: 3.13 µM | CC50 [6]: 48.1 µM | GI50 [7]: 2.51 µM | CC50 [7]: 45.8 µM | GI50 [8]: 1.89 µM | CC50 [8]: 9.15 µM | IC50 [9]: 0.2 ± 0.1 µM | L929 cell survival ([10]; 50 µM single concentration): > 80% | L929 toxicity at single concentration ([10]; 50 µM single concentration): — ^c (No toxicity observed at 50 µM single concentration (>80% cell survival).) | GI50 [12]: 4.22 µM | CC50 [12]: 89.5 µM | GI50 [13]: 1.87 µM | CC50 [13]: 8.05 µM | GI50 [14]: 2.29 µM | CC50 [14]: > 100 µM | GI50 [15]: 3.78 µM | CC50 [15]: 40.6 µM | GI50 [16]: 3.34 µM | CC50 [16]: 34.9 µM | GI50 [17]: 2.54 µM | CC50 [17]: 36.3 µM | GI50 [18]: 2.09 µM | CC50 [18]: 11.7 µM | GI50 [19]: 1.63 µM | CC50 [19]: 5.73 µM | GI50 [20]: 2.41 µM | CC50 [20]: 26.4 µM | GI50 [21]: 3.45 µM | CC50 [21]: 43.1 µM | GI50 [22]: 2.35 µM | CC50 [22]: 17 µM

Reference: paper PMC12203311, “Design, synthesis, in silico and in vitro evaluation of pyrrole–indole hybrids as dual tubulin and aromatase inhibitors with potent anticancer activities” (RSC Advances, 2025)
